Consider one molecule from patent US11452725B2, “Chiral diaryl macrocycles and uses thereof” (TURNING POINT THERAPEUTICS, INC., priority 2015, dated 2022).

The target in test [1] is ARK5 (Homo sapiens, UniProt O60285). Briefly: KINOMEscan kinase binding assay (DiscoveRx). How it is done: (§1) Kinase binding assays were performed at DiscoveRx using the general KINOMEscan Kd Protocol (Fabian, M. A. et al., “A small molecule-kinase interaction map for clinical kinase inhibitors,” Nat. Biotechnol. 2005, 23(3):329-36). For most assays, kinase-tagged T7 phage strains were prepared in an E. coli host derived from the BL21 strain. E. coli were grown to log-phase and infected with T7 phage and incubated with shaking at 32° C. until lysis. The lysates were centrifuged and filtered to remove cell debris. The remaining kinases were produced in HEK-293 cells and subsequently tagged with DNA for qPCR detection. […] The liganded beads were blocked with excess biotin and washed with blocking buffer (SeaBlock (Pierce), 1% BSA, 0.05% Tween 20, 1 mM DTT) to remove unbound ligand and to reduce nonspecific binding. […] All reactions were performed in polystyrene 96-well plates in a final volume of 0.135 mL. […] The kinase concentration in the eluates was measured by qPCR.
(§2) Binding constants (Kds) were calculated with a standard dose-response curve using the Hill equation: Response=Background+(Signal−Background)/(1+(Kd^Hill Slope/Dose^Hill Slope)) The Hill Slope was set to −1. Curves were fitted using a non-linear least square fit with the Levenberg-Marquardt algorithm.

Test [2] deals with FAK (Homo sapiens, UniProt Q05397). The test is described as follows: KINOMEscan kinase binding assay (DiscoveRx). How it is done: as §1, §2
Test [3] deals with T1, FYN (Homo sapiens, UniProt P06241).
T1 construct: purchased Reaction Biology Corporation
Briefly: Biochemical kinase assay (Reaction Biology). To be noted: 10 μM ATP.

Test [4] addresses T2, YES (Homo sapiens, UniProt P07947).
T2 construct: purchased Reaction Biology Corporation
The test is described as follows: Biochemical kinase assay (Reaction Biology). To be noted: 10 μM ATP.

The target in test [5] is T3, TYK2 (Homo sapiens, UniProt P29597).
T3 construct: purchased Reaction Biology Corporation (contract assay)
Briefly: Biochemical kinase assay (Reaction Biology). To be noted: 10 μM ATP.

Test [6] deals with T4, GRK7 (Homo sapiens, UniProt Q8WTQ7).
T4 construct: purchased Reaction Biology Corporation (contract assay)
The test is described as follows: Biochemical kinase assay (Reaction Biology). To be noted: 10 μM ATP.

For test [7], the target named is T5, RET (Homo sapiens, UniProt P07949).
T5 construct: purchased Reaction Biology Corporation (contract assay)
Briefly: Biochemical kinase assay (Reaction Biology). To be noted: 10 μM ATP.

Test [8] addresses T6, JAK3 (Homo sapiens, UniProt P52333).
T6 construct: purchased Reaction Biology Corporation (contract assay)
Briefly: Biochemical kinase assay (Reaction Biology). To be noted: 10 μM ATP.

The target of test [9] is T7, AXL (Homo sapiens, UniProt P30530).
T7 construct: purchased Reaction Biology Corporation (contract assay)
The test is described as follows: Biochemical kinase assay (Reaction Biology). Particulars: 10 μM ATP.

Test [10] relates to Ba/F3 EML4-ALK L1152P cell line. Briefly: Cell proliferation assay (CellTiter-Glo). It is filed as cell-based. To be noted: Mus musculus, 72 hours. On the technique in general: In ATP-based viability assays light output follows the ATP content of the culture.
The subject of test [11] is Ba/F3 CD74-ROS1 G2032R cell line. The test is described as follows: Cell proliferation assay (CellTiter-Glo). Type of test: cell-based. To be noted: Mus musculus, BaF3; 72 hours.
Test [12] deals with CD44. The test is described as follows: CD44 expression by immunoblotting in H2228 cells. Type of test: cell-based, human. Particulars: 48 hours treatment, 0-1000 nM. The protocol:
NSCLC cell line H2228 (harboring endogenous EML4-ALK fusion gene) was cultured in RPMI medium supplemented with 10% fetal bovine serum and 100 U/mL of penicillin/streptomycin. Ba/F3 and NIH3T3 cells stably expressing ROS1, or TRKA, or TRKB, or TRKC (WT or mutant) were cultured as mentioned above. […] Cells were collected after treatment and lysed in RIPA buffer (50 mM Tris, pH 7.4, 150 mM NaCl, 1% NP-40, 0.5% Deoxycholate, 0.1% SDS) supplemented with 10 mM EDTA, 1× Halt protease and phosphatase inhibitors (Thermo Scientific). Protein lysates (approximately 20 μg) was resolved on 4-12% Bolt Bis-Tris precasted gels with MES running buffer (Life Technologies), transferred to nitrocellulose membranes using Trans-Blot Turbo Transfer System (Bio-Rad) and detected with antibodies targeting phosphorylated phosphorylated ROS1 and total ROS1 (Cell Signaling Technology), phosphorylated TRK A/B (Cell Signaling Technology), total TRKA antibody (Santa Cruz Biotechnology), phosphorylated SRC Y416 (Cell Signaling Technology), total SRC (Cell Signaling Technology), phosphorylated FAK Y576/577 (Cell Signaling Technology), total FAK (Cell Signaling Technology), phosphorylated paxillin Y118 (Cell Signaling Technology), total paxillin (Cell Signaling Technology), phosphorylated EGFR and total EGFR, CD44, and Tubulin (Sigma). […]
On the technique in general: Immunoblotting shows a protein as a band on a membrane.

Test [13] relates to KM12 tumors. Briefly: KM12 colorectal cancer subcutaneous xenograft model. Type of test: in vivo, athymic nude mice. Particulars: seven days.
For test [14], the system named is Ba/F3 CD74-ROS1 G2032R tumors. Briefly: Ba/F3 CD74-ROS1 G2032R subcutaneous xenograft model. Type of test: in vivo, SCID/Beige mice. Particulars: 11 days.
[15] abbreviates: Example 13: 15 mg/kg BID orally.
[16] abbreviates: Example 13: 75 mg/kg BID orally.

The structures appear in SMILES notation. Entries after “also recorded” stand apart in the source; their conditions may differ.

T7 sequence (P30530 26-894): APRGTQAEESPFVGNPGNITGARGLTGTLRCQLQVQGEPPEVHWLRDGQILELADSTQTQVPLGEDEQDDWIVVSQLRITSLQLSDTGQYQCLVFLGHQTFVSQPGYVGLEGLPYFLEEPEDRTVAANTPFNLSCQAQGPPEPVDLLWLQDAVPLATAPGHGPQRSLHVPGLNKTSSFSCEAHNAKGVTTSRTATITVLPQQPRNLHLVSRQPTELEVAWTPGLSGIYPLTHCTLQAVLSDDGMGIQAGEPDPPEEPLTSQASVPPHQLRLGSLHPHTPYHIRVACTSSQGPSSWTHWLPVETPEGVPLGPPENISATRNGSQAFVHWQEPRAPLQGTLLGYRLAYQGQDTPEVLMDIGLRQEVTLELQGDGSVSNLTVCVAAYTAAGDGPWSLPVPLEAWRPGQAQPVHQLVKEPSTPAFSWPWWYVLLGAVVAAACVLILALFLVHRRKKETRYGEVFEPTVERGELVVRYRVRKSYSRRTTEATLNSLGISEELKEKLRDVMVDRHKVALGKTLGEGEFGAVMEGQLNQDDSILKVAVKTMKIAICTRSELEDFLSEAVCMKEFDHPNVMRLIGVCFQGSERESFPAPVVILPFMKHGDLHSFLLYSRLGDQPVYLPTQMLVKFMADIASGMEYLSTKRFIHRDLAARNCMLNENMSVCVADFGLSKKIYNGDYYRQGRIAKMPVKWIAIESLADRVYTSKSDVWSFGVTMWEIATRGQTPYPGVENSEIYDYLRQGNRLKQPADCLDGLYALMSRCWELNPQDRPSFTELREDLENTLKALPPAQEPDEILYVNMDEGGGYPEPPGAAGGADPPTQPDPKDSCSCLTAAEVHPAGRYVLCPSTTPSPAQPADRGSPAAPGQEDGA
T1 sequence (P06241 whole entry): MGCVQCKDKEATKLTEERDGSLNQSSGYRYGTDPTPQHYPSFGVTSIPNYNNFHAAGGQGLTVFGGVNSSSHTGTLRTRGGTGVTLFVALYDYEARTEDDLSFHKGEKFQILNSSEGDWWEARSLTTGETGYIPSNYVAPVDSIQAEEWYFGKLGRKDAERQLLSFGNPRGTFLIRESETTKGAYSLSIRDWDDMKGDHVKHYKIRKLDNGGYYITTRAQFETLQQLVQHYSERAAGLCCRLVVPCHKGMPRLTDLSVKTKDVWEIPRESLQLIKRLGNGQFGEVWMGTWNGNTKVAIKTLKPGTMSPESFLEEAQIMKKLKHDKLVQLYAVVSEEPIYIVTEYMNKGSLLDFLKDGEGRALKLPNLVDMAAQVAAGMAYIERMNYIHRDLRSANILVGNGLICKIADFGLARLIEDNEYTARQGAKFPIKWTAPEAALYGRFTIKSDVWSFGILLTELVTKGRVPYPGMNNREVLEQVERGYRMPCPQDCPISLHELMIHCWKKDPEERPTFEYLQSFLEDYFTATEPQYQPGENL
Chain of FAK (Q05397 whole entry): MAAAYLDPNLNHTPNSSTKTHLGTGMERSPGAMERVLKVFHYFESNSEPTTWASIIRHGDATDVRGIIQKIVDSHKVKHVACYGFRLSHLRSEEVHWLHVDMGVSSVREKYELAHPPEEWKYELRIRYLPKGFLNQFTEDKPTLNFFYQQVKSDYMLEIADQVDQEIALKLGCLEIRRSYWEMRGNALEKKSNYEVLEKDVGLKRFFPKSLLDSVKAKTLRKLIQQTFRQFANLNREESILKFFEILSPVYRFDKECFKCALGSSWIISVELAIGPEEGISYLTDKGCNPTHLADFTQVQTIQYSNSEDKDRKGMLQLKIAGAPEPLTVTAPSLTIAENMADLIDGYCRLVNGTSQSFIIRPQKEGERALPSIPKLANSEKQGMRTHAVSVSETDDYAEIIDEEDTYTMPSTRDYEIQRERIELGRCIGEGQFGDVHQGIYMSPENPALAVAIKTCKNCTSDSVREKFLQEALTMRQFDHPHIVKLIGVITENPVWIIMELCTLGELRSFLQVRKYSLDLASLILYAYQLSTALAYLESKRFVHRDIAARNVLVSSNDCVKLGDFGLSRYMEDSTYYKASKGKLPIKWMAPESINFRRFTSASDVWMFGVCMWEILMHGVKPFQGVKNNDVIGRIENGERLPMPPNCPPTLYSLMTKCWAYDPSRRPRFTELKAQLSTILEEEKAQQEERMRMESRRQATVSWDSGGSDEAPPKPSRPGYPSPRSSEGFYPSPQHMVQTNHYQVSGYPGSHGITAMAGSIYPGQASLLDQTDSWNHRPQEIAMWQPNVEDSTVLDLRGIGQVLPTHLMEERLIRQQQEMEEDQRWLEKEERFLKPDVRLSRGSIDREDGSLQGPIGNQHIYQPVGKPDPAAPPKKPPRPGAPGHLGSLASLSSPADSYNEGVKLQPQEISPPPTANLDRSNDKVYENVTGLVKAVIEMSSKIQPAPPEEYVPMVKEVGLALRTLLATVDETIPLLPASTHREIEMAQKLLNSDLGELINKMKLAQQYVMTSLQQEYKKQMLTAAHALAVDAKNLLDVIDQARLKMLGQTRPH
T6 sequence (P52333 whole entry): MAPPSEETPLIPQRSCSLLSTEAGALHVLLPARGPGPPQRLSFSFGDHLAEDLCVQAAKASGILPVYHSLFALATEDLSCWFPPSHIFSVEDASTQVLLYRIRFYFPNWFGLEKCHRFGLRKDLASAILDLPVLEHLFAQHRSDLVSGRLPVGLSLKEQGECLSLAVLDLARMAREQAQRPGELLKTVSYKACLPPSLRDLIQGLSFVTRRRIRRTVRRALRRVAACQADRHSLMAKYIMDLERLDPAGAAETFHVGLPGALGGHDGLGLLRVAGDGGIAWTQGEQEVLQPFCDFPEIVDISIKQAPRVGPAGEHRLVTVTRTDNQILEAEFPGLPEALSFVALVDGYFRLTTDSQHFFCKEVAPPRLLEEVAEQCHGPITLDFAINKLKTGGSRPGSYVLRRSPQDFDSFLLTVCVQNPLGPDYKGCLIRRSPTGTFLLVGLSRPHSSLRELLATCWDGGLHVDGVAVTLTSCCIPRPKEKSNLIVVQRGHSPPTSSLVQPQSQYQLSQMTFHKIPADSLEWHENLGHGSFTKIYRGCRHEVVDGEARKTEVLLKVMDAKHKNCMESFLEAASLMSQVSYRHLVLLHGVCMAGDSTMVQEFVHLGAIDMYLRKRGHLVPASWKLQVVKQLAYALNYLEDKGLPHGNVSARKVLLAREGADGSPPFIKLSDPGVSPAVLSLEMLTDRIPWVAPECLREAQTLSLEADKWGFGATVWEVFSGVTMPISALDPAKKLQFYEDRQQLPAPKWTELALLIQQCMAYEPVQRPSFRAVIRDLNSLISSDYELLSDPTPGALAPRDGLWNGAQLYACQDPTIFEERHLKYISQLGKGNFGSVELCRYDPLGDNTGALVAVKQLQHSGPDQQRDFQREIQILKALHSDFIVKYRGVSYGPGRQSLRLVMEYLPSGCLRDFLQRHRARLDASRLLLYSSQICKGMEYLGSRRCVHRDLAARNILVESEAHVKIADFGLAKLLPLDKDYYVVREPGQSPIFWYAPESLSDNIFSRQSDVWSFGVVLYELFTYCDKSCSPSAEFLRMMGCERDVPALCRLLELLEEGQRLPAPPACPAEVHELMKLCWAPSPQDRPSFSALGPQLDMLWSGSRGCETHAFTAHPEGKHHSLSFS
T4 sequence (Q8WTQ7 whole entry): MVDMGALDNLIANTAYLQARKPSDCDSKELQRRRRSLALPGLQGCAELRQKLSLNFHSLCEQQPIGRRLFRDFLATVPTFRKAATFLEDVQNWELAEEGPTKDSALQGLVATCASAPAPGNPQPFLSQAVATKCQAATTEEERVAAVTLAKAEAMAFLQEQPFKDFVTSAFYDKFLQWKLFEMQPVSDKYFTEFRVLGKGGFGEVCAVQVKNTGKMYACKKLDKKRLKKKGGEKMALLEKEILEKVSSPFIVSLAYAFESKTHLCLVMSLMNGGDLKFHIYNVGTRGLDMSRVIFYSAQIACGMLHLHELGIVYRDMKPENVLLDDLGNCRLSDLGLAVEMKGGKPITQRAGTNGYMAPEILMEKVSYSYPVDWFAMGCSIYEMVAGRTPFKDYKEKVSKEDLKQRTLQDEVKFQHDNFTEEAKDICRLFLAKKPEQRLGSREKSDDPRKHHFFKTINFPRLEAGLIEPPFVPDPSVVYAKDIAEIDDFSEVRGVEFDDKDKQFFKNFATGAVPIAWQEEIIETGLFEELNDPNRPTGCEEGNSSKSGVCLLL
T2 sequence (P07947 whole entry): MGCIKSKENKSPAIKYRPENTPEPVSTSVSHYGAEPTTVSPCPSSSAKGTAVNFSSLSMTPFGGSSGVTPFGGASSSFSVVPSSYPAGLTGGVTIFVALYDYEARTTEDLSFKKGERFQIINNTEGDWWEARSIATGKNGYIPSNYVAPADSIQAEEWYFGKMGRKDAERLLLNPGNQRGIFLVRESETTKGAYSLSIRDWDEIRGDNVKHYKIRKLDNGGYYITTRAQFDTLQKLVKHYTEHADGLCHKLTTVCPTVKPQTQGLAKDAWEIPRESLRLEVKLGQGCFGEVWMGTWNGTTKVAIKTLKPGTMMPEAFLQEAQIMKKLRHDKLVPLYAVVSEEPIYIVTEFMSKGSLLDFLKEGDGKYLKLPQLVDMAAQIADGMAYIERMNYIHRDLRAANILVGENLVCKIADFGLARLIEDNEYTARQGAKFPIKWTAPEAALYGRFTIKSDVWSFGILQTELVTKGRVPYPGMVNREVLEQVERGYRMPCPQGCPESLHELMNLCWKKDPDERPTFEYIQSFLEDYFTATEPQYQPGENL

As to `C[C@H]1CNC(=O)c2cnn3ccc(nc23)N[C@H](C)c2cc(F)ccc2O1` [Compound 1, (7S,13R)-11-fluoro-7,13-dimethyl-6,7,13,14-tetrahydro-1,15-ethenopyrazolo[4,3-f][1,4,8,10]benzoxatriazacyclotridecin-4(5H)-one], the results for the Kd in test [1] and in test [2] were 3.7 nM and 27 nM, respectively. Besides, the IC50 in test [3] was determined as 1.05 nM; in test [4], 2.15 nM; in test [5], 21.6 nM; in test [6], 35.2 nM; in [7], 47.1 nM; in test [8], 50 nM. In addition, the values for the IC50 in [9], in test [10] and in test [11] were 149 nM, 85 nM and […], respectively. The CD44 expression level entry in [12] is listed as “down-regulates CD44 expression; also recorded: suppressed CD44 expression level in H2228 cells in a concentration-dependent manner”. Moreover, the “mice exhibiting tumor regression” value was 8 of 8 in test [13] (setting [15]); 5 of 8 in [13] (setting [16]); 2 of 10 in test [13] (Example 15: 3 mg/kg BID orally); 5 of 10 in test [13] (Example 15: 15 mg/kg BID orally); 2 of 8 in test [14] (15 mg/kg/BID orally). The “tumor regression (REG)” value in test [13] (setting [15]) is given as 13%; in test [13] (setting [16]), 11%; in test [13] (Example 15 dose dependent study: 15 mg/kg BID orally), 1%; in test [14] (75 mg/kg BID orally), 100%. Also, in [13] (Example 15: 1 mg/kg BID orally), the “Tumor growth inhibition (TGI)” value is on record as 77%. Further, the “mice exhibiting complete tumor regression” value in [14] (75 mg/kg BID orally) is 8 of 8.

One may read the Kd as a measure of binding affinity in units of concentration. Low values mean tighter binding, high ones weaker binding. For orientation: IC50 means the midpoint of a concentration-inhibition curve.
